# Laboratory results: ChEMBL document CHEMBL1201862, “PubChem BioAssay data set” (2004)
# The source made the active and inactive calls. Unless noted, no cut-off for these calls is given here.
# Columns and labels:
# HEK293 = experiment: Fluorescence-based counterscreen for potentiators or agonists of NPY-Y2: cell-based high-throughput dose response assay to identify inhibitors of cyclic nucleotide gated ion channel (CNGC) activity. In this assay, the parental HEK293 cell line transfected with a cyclic-nucleotide gated ion channel (CNGC)-based cAMP sensor is used to measure inhibition of isoproterenol-induced CNGC activity by test compound.; assay type: functional; settings: Homo sapiens;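 note: stimulus is 1 µM isoproterenol at EC100 plus PDE inhibitor Ro 20-1724 at 25 µM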
# [1] = target: Lysosomal acid glucosylceramidase (Homo sapiens, UniProt P04062); experiment: Dose response cell-based high throughput screening assay to identify enhancers of beta-glucosidase activity. [Related pubchem assays: 784 ]; assay type: functional
# Chain of Lysosomal acid glucosylceramidase (P04062 whole entry): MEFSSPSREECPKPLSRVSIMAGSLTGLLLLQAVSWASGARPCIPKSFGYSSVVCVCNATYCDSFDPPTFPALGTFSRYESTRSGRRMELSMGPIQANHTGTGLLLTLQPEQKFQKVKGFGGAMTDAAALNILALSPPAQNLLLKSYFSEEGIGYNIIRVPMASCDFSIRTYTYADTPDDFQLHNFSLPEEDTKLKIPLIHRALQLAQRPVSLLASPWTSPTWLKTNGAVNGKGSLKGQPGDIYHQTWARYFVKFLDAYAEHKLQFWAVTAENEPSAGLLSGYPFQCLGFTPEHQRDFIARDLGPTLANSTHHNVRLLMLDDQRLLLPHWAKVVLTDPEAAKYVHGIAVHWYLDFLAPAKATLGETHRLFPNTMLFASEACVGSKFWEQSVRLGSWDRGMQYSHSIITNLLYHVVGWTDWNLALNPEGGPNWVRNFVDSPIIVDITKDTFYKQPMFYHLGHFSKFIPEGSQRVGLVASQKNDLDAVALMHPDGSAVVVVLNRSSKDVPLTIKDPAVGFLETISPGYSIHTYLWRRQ
# [2] = target: T1, Neuropeptide Y receptor type 2 (Homo sapiens, UniProt P49146); experiment: Fluorescence-based cell-based high-throughput dose response assay for agonists of NPY-Y2. [Related pubchem assays: 1703 (Screening assay (CNGC inhibitors).), 1359 (Screening assay (NPY-Y2 potentiators or agonists).), 1304 (Screening assay (NPY-Y1 potentiators or agonists).), 1710 (Screening assay (NPY-Y2 agonists).), 1791 (Summary AID.)]; assay type: functional
# T1 sequence (P49146 whole entry): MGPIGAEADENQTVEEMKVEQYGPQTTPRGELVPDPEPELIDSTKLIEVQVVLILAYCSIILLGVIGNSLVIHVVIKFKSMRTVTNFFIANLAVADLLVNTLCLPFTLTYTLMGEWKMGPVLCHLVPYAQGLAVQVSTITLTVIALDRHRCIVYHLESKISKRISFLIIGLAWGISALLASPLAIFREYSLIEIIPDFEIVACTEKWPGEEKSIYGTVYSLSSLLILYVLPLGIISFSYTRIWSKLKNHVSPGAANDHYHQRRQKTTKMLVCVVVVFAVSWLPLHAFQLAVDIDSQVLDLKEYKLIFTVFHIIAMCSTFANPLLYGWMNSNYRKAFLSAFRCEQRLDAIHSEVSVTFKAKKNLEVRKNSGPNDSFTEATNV
# [3] = target: T2, Neuropeptide Y receptor type 1 (Homo sapiens, UniProt P25929); experiment: Fluorescence-based counterscreen for agonists of NPY-Y2: cell-based high-throughput dose response assay for agonists of NPY-Y1.; assay type: functional
# T2 sequence (P25929 whole entry): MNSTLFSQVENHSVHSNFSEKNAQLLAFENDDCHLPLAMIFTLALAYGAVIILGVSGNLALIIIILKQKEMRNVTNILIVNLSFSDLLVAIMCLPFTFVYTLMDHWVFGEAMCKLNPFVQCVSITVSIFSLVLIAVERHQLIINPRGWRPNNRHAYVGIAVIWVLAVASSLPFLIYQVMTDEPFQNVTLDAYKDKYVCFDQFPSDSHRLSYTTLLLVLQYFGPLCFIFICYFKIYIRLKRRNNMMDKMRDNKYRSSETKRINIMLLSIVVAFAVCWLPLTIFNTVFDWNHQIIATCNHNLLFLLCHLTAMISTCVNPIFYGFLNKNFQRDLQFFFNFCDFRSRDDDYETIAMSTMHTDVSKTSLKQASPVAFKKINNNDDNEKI
# MDA-MB-435 = experiment: cells; assay type: functional, cell-based; settings: Homo sapiens
# cells = assay type: functional, cell-based; settings: PPC-1
# [4] = target: Beta-2 adrenergic receptor (Homo sapiens, UniProt P07550); experiment: ADRB2 activation measured by internalization – cell-based, FAP fluorogen, flow cytometry, cherry pick 1, dose response (AID 588763); assay type: functional
# Chain of Beta-2 adrenergic receptor (P07550 whole entry): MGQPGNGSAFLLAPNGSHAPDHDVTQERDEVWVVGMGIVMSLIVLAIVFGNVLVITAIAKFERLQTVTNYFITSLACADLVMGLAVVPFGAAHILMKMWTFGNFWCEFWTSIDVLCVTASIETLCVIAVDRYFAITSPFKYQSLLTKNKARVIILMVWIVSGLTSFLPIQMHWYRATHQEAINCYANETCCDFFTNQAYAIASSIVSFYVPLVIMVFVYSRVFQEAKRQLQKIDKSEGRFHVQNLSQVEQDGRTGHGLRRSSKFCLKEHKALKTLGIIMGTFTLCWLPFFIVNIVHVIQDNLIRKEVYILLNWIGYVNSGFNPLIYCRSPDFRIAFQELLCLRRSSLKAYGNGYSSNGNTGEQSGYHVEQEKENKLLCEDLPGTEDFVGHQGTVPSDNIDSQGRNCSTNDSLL
# Caspase-3 = target: T3, Caspase-3 (Homo sapiens, UniProt P42574); experiment: activators of human procaspase-3 D3A mutant – biochemical, absorbance, PC-3 D3A mutant, counter-screen for dual procaspase-3/7 activator project, dose response (AID 504328)
# T3 sequence (P42574 whole entry): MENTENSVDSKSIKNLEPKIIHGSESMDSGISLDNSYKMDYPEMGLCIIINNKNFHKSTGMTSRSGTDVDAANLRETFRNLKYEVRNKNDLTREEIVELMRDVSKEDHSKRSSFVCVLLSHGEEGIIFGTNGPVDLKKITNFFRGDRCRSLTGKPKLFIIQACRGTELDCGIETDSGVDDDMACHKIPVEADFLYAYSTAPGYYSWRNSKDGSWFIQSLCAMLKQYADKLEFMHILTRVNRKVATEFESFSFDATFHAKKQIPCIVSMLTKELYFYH
# Caspase-7 = Caspase-7 (Homo sapiens, UniProt P55210); experiment: potency of procaspase-7 enzyme activation – biochemical, absorbance, human, dual procaspase-3/-7 activator project, dose response (AID 504330)
# [5] = target: Melanin-concentrating hormone receptor 1 (Homo sapiens, UniProt Q99705); experiment: Late-stage fluorescence-based counterscreen for antagonists of the G-protein coupled receptor 7 (GPR7): cell-based dose response assay to identify antagonists of the melanin-concentrating hormone receptor 1 (MCHR1). [Related pubchem assays (depositor defined):AID1861, AID1880, AID1952, AID2148, AID2251, AID2257, AID485339]; assay type: functional;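 note: stimulated with 30 nM MCH peptide agonist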
# Chain of Melanin-concentrating hormone receptor 1 (Q99705 whole entry): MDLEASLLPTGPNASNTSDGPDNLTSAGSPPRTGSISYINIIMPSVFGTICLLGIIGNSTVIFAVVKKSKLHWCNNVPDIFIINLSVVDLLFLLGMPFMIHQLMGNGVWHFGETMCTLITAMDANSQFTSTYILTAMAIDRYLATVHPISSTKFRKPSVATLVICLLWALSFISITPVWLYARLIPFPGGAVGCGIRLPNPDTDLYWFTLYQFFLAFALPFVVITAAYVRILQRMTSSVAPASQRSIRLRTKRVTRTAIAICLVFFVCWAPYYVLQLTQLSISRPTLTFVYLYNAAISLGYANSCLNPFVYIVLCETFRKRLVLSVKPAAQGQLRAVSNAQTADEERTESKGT
# [6] = target: T4, Neuropeptides B/W receptor type 1 (Homo sapiens, UniProt P48145); experiment: human NPBW1 receptor blockade, IC50 – cell-based, fluorescence, dose response, late-stage follow-up (AID 463251); assay type: functional
# T4 sequence (P48145 whole entry): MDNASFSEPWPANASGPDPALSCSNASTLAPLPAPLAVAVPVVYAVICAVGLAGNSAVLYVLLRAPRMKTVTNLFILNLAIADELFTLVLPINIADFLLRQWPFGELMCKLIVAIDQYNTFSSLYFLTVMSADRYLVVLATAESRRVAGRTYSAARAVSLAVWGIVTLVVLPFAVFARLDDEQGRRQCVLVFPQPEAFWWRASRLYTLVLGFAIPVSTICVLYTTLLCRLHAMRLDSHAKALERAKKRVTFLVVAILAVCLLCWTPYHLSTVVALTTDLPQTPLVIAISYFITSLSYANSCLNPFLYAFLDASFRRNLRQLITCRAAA
# [7] = Luminescence Cell-Based Dose Response HTS to Identify Activators of Luciferase Translation or Activity in H4 […] Cells. [Related pubchem assays: 1829 (Project Summary), 1814 (Primary HTS)]; assay type: functional
# H4 = experiment: Luminescence Cell-Based Dose Response HTS to Identify Activators of 5'UTR Stem-Loop Driven Prion Protein mRNA Translation in H4 Neuroglioblastoma Cells. [Related pubchem assays: 1829 (Project Summary), 1814 (Primary HTS)]; assay type: functional; settings: Homo sapiens
# J774.A1 = experiment: Confirmation of image-based Screening Assay for Inhibitors of Phagocytosis. [Related pubchem assays (depositor defined):AID1029, AID1643]; assay type: functional, cell-based; settings: Mus musculus
# [8] = HEK-293T viability loss after treatment – luminescence, T-cell screen hits, cytotoxicity control for TCR NF-kB inhibitor project, dose response (AID 489026); assay type: functional, cell-based;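 note: cells exposed to compound about 14 hours before the viability readout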
structure (smiles),measurement,setting,value
O=C(NCCCn1ccnc1)Nc1ccc(Cl)cc1,EC50,HEK293,> 35.4 µM (not active)
same,EC50,[1],> 50 µM (not active)
same,EC50,[2],> 35.4 µM (not active)
same,EC50,[3],> 35.4 µM (not active)
CC(Sc1nc(-c2ccccc2)cc(C(F)(F)F)n1)C(=O)N1CCCC1 (stereo not given),IC50,MDA-MB-435,> 10 µM (inactive)
same,IC50,cells,> 10 µM (inactive)
same,EC50,[4],0.243 µM (active)
COc1ccc(C(=O)N/N=C/c2ccc3cccc(OCc4ccccc4)c3n2)cc1,EC50,Caspase-3,> 85.3 µM (inactive)
same,EC50,Caspase-7,> 85.3 µM (inactive)
Cc1ccc(-n2ncc(Cl)c(Oc3ccc(F)cc3C)c2=O)cc1,IC50,[5],17 µM (inactive)
same,IC50,[6],10 µM (active)
Cc1cc(=O)oc2cc(OCC3CC(c4ccccc4Cl)=NO3)ccc12 (stereo not given),EC50,[7],11.7 µM (active)
same,EC50,H4,> 120 µM (not active)
same,IC50,J774.A1,> 25 µM (inactive)
same,IC50,[8],> 80 µM (inactive)
